The values below come from patent US20250361268A1, “NOVEL ANTI-INFLAMMATORY PEPTIDE AND USE THEREOF” (NOVACELL TECHNOLOGY INC., priority 2022, published 2025).

Molecules are shown by their SMILES. Peptide text beside a SMILES is read from it.

In one experiment the target is T1, FPR1 (Homo sapiens, UniProt P21462).
T1 sequence (P21462 1-350): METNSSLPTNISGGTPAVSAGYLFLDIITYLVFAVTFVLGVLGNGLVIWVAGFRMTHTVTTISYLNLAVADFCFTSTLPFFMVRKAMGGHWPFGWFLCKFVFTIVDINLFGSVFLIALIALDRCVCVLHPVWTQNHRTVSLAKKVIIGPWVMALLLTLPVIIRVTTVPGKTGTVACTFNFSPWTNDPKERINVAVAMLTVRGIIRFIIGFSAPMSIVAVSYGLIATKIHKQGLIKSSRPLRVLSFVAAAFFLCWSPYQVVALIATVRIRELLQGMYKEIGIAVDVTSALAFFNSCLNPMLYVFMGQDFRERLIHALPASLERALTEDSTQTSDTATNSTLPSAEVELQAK
In words: Change in calcium activity by peptide, FPR1 activation effect. Format: cell-based. As to conditions: calcium activity (Fura-2), graded per Table 3, read-out: EC50 for [Ca^2+] FPR1. On the procedure: The day before measuring calcium activity, the cells were prepared at 3×10^5 cells per well in a 96-well flat clear bottom black plate (Costar, #3603). The prepared cells were treated with a Fura-2 QBT calcium kit (component A; Molecular Devices, #8197) at the same volume per well. After incubation at 37° C. for 1 hour, the cells were incubated in a dark room at room temperature for 30 minutes. After the Fura-2-treated cells, the prepared peptide, and a dedicated tip were placed at each section of FlexStation 3 Multi-Mode Microplate Reader (Molecular Devices, #Flex3), changes in calcium activity caused by the peptides were measured using SoftMax Pro 7 Software (Molecular Devices, #FLEX3-INSTALL-OS). […]

The target of the next experiment is T2, FPR2 (Homo sapiens, UniProt P25090).
T2 construct: expressed in transfected cells; host or cells: RBL cells (RBL-FPR2)
T2 sequence (P25090 1-351): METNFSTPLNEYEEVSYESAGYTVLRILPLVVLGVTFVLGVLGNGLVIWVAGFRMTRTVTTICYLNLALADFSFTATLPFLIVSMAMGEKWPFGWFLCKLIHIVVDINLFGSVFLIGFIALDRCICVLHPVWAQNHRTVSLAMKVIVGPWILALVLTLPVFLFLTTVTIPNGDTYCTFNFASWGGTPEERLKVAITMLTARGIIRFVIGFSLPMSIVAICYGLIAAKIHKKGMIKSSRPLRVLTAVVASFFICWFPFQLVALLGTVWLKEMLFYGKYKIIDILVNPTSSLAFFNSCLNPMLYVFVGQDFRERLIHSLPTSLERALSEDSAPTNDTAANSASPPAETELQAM
In words: Change in calcium activity by peptide (Fura-2) in RBL cells overexpressing FPR2. The format is cell-based. The settings on record: calcium activity (Fura-2), graded per Table 3, read-out: EC50 for [Ca^2+] FPR2. On the procedure: The present inventors observed changes in calcium ion permeability to confirm whether the immunomodulatory peptide candidates prepared according to one example of the present invention activate the immune function of a living organism. Specifically, the concentration of calcium ions in cells was measured to confirm whether the peptides activate FPR2.
A peptide dissolved in water or 50% DMSO at a concentration of 0.5 mM was prepared by diluting it to an appropriate concentration in HBSS (Sigma, #55037C)+20 mM HEPES buffer.
In this experiment, the cells were cultured in DMEM (Lonza, #BE12-604F) containing 10% fetal bovine serum (FBS) and 1% penicillin-streptomycin under conditions of 37° C. and 5% CO2.
The day before measuring calcium activity, the cells were prepared at 3×10^5 cells per well in a 96-well flat clear bottom black plate (Costar, #3603). The prepared cells were treated with a Fura-2 QBT calcium kit (component A; Molecular Devices, #8197) at the same volume per well. After incubation at 37° C. for 1 hour, the cells were incubated in a dark room at room temperature for 30 minutes. After the Fura-2-treated cells, the prepared peptide, and a dedicated tip were placed at each section of FlexStation 3 Multi-Mode Microplate Reader (Molecular Devices, #Flex3), changes in calcium activity caused by the peptides were measured using SoftMax Pro 7 Software (Molecular Devices, #FLEX3-INSTALL-OS).

Broadly, the EC50 is the concentration giving half of the maximal effect. Turning to `CC[C@H](C)[C@H](N)C(=O)N[C@@H](CCCCN)C(=O)N[C@@H](Cc1ccc(O)cc1)C(=O)N[C@@H](CCCCN)C(=O)N1CCC[C@H]1C(=O)N[C@H](CCSC)C(N)=O` [Peptide 142] (HELM PEPTIDE1{I.K.Y.K.P.[dM].[am]}$$$$V2.0), the EC50 at FPR1 is over 10000 nM; on FPR2, under 10 nM.

With `CSCC[C@H](NC(=O)[C@H](CCCNC(=N)N)NC(C)=O)C(=O)N[C@@H](CCCNC(=N)N)C(=O)N[C@@H](Cc1ccc(O)cc1)C(=O)N[C@@H](Cc1ccc(O)cc1)C(=O)N1CCC[C@H]1C(=O)N[C@H](CCSC)C(N)=O` [Peptide 119] (HELM PEPTIDE1{[ac].R.M.R.Y.Y.P.[dM].[am]}$$$$V2.0), the EC50 at FPR1 is 101 to 1000 nM; on FPR2, under 10 nM.

Regarding `CCCC(=O)N[C@@H](Cc1c[nH]cn1)C(=O)N[C@@H](CCCCN)C(=O)N[C@@H](Cc1ccc(O)cc1)C(=O)N[C@@H](Cc1c[nH]c2ccccc12)C(=O)N1CCC[C@H]1C(=O)N[C@H](CCSC)C(N)=O` [Peptide 151] (HELM PEPTIDE1{[CCCC(=O)[*:2]].H.K.Y.W.P.[dM].[am]}$$$$V2.0), the EC50 on FPR1 was 1000 to 10000 nM; at FPR2, under 10 nM.

`CC[C@H](C)[C@H](N)C(=O)N[C@@H](CCCCN)C(=O)N[C@@H](Cc1ccccc1)C(=O)N[C@@H](CCCCN)C(=O)N1CCC[C@H]1C(=O)N[C@H](CCSC)C(N)=O` [Peptide 133] (HELM PEPTIDE1{I.K.F.K.P.[dM].[am]}$$$$V2.0): the EC50 at FPR1 is over 10000 nM; on FPR2, under 10 nM.

`CSCC[C@@H](NC(=O)[C@@H](NC(=O)[C@H](CCCCN)NC(=O)[C@H](Cc1ccc(O)cc1)NC(=O)[C@H](CCCCN)NC(=O)[C@@H]1CCCN1)C(C)C)C(N)=O` [Peptide 138] (HELM PEPTIDE1{P.K.Y.K.V.[dM].[am]}$$$$V2.0): the EC50 on FPR1 is over 10000 nM; on FPR2 it was under 10 nM.

`CSCC[C@H](NC(=O)[C@H](CCCCN)NC(C)=O)C(=O)N[C@@H](CCCCN)C(=O)N[C@@H](Cc1ccc(O)cc1)C(=O)N[C@@H](CCCCN)C(=O)N[C@H](C(=O)N[C@H](CCSC)C(N)=O)C(C)C` [Peptide 10] (HELM PEPTIDE1{[ac].K.M.K.Y.K.V.[dM].[am]}$$$$V2.0): the EC50 at FPR1 is over 10000 nM; on FPR2, 11 to 100 nM.

With `CSCC[C@H](NC(=O)[C@H](Cc1c[nH]cn1)NC(C)=O)C(=O)N[C@@H](CCCNC(=N)N)C(=O)N[C@@H](Cc1ccc(O)cc1)C(=O)N[C@@H](Cc1c[nH]c2ccccc12)C(=O)N[C@@H](Cc1ccc(O)cc1)C(=O)N[C@H](CCSC)C(N)=O` [Peptide 92] (HELM PEPTIDE1{[ac].H.M.R.Y.W.Y.[dM].[am]}$$$$V2.0), the EC50 is over 10000 nM on FPR1 and under 10 nM at FPR2.

For the molecule `CSCC[C@H](NC(=O)[C@@H](N)CCCNC(=N)N)C(=O)N[C@@H](CCCNC(=N)N)C(=O)N[C@@H](Cc1ccc(O)cc1)C(=O)N[C@@H](Cc1c[nH]c2ccccc12)C(=O)N1CCC[C@H]1C(=O)N[C@H](CCSC)C(N)=O` [Peptide 106] (HELM PEPTIDE1{R.M.R.Y.W.P.[dM].[am]}$$$$V2.0), the EC50 is 101 to 1000 nM at FPR1 and under 10 nM at FPR2.

In the case of `CCCC(=O)N[C@@H](Cc1c[nH]cn1)C(=O)N[C@@H](Cc1c[nH]c2ccccc12)C(=O)N[C@@H](CCCCN)C(=O)N[C@@H](Cc1ccc(O)cc1)C(=O)N[C@@H](CCCCN)C(=O)N[C@@H](Cc1ccc(O)cc1)C(=O)N[C@H](CCSC)C(N)=O` [Peptide 37] (HELM PEPTIDE1{[CCCC(=O)[*:2]].H.W.K.Y.K.Y.[dM].[am]}$$$$V2.0), the EC50 on FPR1 was over 10000 nM; at FPR2, under 10 nM.

Consider `CSCC[C@H](NC(=O)[C@H](CCCNC(=N)N)NC(C)=O)C(=O)N[C@@H](CCCNC(=N)N)C(=O)N[C@@H](Cc1ccc(O)cc1)C(=O)N[C@@H](Cc1c[nH]c2ccccc12)C(=O)N[C@H](C(=O)N[C@H](CCSC)C(N)=O)C(C)C` [Peptide 104] (HELM PEPTIDE1{[ac].R.M.R.Y.W.V.[dM].[am]}$$$$V2.0), for which the EC50 is 1000 to 10000 nM at FPR1 and under 10 nM at FPR2.
